Laboratory results taken from patent publication US11986532B2 (Arvinas Operations, Inc., priority 2021, dated 2024).
Like-named read-outs stand apart in the source and are kept apart here.

Target: T1, BCL6 (Homo sapiens, UniProt P41182)
T1 construct: endogenous in cells; host or cells: T47D breast cancer epithelial cells
Assay: Immunofluorescence protocol for high content imaging of BCL6 (degradation) in T47D cells, 3 days compound treatment
Type: cell-based
Conditions: for Dmax: read-out: Mean Dmax (%)** category; for DC50: read-out: Mean DC50 (nM)* category
Outline: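 For degradation, compound series (3-fold, 11 points, top 0.1 or 1 μM final) were added to adherent T47D cultures for 3 days. BCL6 immunostaining used a rabbit antibody at 1:300 and an Alexa-488 secondary, with imaging at 10× magnification.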

[1] = T47D cells, 3 days compound treatment

Compound | Dmax (T47D) | DC50 | DC50 [1] | Dmax [1]
CNC(=O)COc1cc2cc(Nc3cc(N4CCC(CN5CCC6(CC5)CN(c5ccc7c(c5)CN(C5CCC(=O)NC5=O)C7=O)C6)CC4)ncc3Cl)ccc2n(C(C)C)c1=O (stereo not shown) [Compound 321, 2-{[6-({5-chloro-2-[4-({2-[2-(2,6-dioxopiperidin-3-yl)-1-oxo-2,3-dihydro-1H-isoindol-5-yl]-2,7-diazaspiro[3.5]nonan-7-yl}methyl)piperidin-1-yl]pyridin-4-yl}amino)-2-oxo-1-(propan-2-yl)-1,2-dihydroquinolin-3-yl]oxy}-N-methylacetamide] | 50 to 70% | < 10 nM |  | 
CNC(=O)COc1cc2cc(Nc3cc(N4CCC(CN5CCC6(CC5)CN(c5ccc7c(c5F)CN(C5CCC(=O)NC5=O)C7=O)C6(C)C)CC4)ncc3Cl)ccc2n(C(C)C)c1=O (stereo not shown) [Compound 229, 2-{[6-({5-chloro-2-[4-({2-[2-(2,6-dioxopiperidin-3-yl)-4-fluoro-1-oxo-2,3-dihydro-1H-isoindol-5-yl]-1,1-dimethyl-2,7-diazaspiro[3.5]nonan-7-yl}methyl)piperidin-1-yl]pyridin-4-yl}amino)-2-oxo-1-(propan-2-yl)-1,2-dihydroquinolin-3-yl]oxy}-N-methylacetamide] | ≥ 70% | < 10 nM |  | 
CNC(=O)COc1cc2cc(Nc3nc(N4CCC(O[C@H]5C[C@H](N6CCC(c7ccc8c(c7C)CN(C7CCC(=O)NC7=O)C8=O)CC6)C5)CC4)ncc3Cl)ccc2n(C(C)C)c1=O (stereo partly shown) [Compound 197] |  |  | < 10 nM | ≥ 70%
CNC(=O)COc1cc2cc(Nc3nc(N4CCC(O[C@H]5C[C@H](N6CCC(F)(c7ccc8c(c7)C(=O)N(C7CCC(=O)NC7=O)C8=O)CC6)C5)CC4)ncc3Cl)ccc2n(C(C)C)c1=O (stereo partly shown) [Compound 276, 2-({6-[(5-chloro-2-{4-[(1r,3r)-3-{4-[2-(2,6-dioxopiperidin-3-yl)-1,3-dioxoisoindol-5-yl]-4-fluoropiperidin-1-yl}cyclobutoxy]piperidin-1-yl}pyrimidin-4-yl)amino]-1-isopropyl-2-oxoquinolin-3-yl}oxy)-N-methylacetamide] | 50 to 70% | 10 to 50 nM |  | 
CNC(=O)COc1cc2cc(Nc3nc(N4CCC(F)(CN5CCC6(CC5)CN(c5ccc7c(c5)C(=O)N(C5CCC(=O)NC5=O)C7=O)C6)CC4)ncc3Cl)ccc2n(C(C)C)c1=O (stereo not shown) [Compound 43, 2-{[6-({5-chloro-2-[4-({2-[2-(2,6-dioxopiperidin-3-yl)-1,3-dioxo-2,3-dihydro-1H-isoindol-5-yl]-2,7-diazaspiro [3.5]nonan-7-yl}methyl)-4-fluoropiperidin-1-yl]pyrimidin-4-yl}amino)-2-oxo-1-(propan-2-yl)-1,2-dihydroquinolin-3-yl]oxy}-N-methylacetamide] |  |  | 10 to 50 nM | 50 to 70%
CNC(=O)COc1cc2cc(Nc3nc(N4CCC(O[C@H]5C[C@H](N6CC[C@@H](c7ccc8c(c7F)CN([C@H]7CCC(=O)NC7=O)C8=O)C(C)(C)C6)C5)CC4)ncc3Cl)ccc2n(C(C)C)c1=O [Compound 209, 2-({6-[(5-chloro-2-{4-[(1r,3r)-3-[(4R)-4-{2-[(3S)-2,6-dioxopiperidin-3-yl]-4-fluoro-1-oxo-2,3-dihydro-1H-isoindol-5-yl}-3,3-dimethylpiperidin-1-yl]cyclobutoxy]piperidin-1-yl}pyrimidin-4-yl)amino]-2-oxo-1-(propan-2-yl)-1,2-dihydroquinolin-3-yl}oxy)-N-methylacetamide] |  |  | < 10 nM | ≥ 70%
CNC(=O)COc1cc2cc(Nc3nc(N4CCC(O[C@H]5C[C@H](N6C[C@@H](C)N(c7ccc8c(c7C)C(=O)N(C7CCC(=O)NC7=O)C8=O)C[C@@H]6C)C5)CC4)ncc3Cl)ccc2n(C(C)C)c1=O (stereo partly drawn) [Compound 207, 2-({6-[(5-chloro-2-{4-[(1r,3r)-3-[(2S,5R)-4-[2-(2,6-dioxopiperidin-3-yl)-4-methyl-1,3-dioxo-2,3-dihydro-1H-isoindol-5-yl]-2,5-dimethylpiperazin-1-yl]cyclobutoxy]piperidin-1-yl}pyrimidin-4-yl)amino]-2-oxo-1-(propan-2-yl)-1,2-dihydroquinolin-3-yl}oxy)-N-methylacetamide] |  |  | < 10 nM | ≥ 70%
CNC(=O)COc1cc2cc(Nc3nc(N4CCC(CN5CCC6(CC5)CCN6c5ccc6c(c5)CN(C5CCC(=O)NC5=O)C6=O)CC4)ncc3Cl)ccc2n(C(C)C)c1=O (stereo not shown) [Compound 336, 2-{[6-({5-chloro-2-[4-({1-[2-(2,6-dioxopiperidin-3-yl)-1-oxo-2,3-dihydro-1H-isoindol-5-yl]-1,7-diazaspiro[3.5]nonan-7-yl}methyl)piperidin-1-yl]pyrimidin-4-yl}amino)-2-oxo-1-(propan-2-yl)-1,2-dihydroquinolin-3-yl]oxy}-N-methylacetamide] | ≥ 70% | < 10 nM |  | 
CNC(=O)COc1cc2cc(Nc3nc(N4CCC(CN5CCC6(CC5)CN(c5cc(F)c7c(c5)CN(C5CCC(=O)NC5=O)C7=O)C6)CC4)ncc3Cl)ccc2n(C(C)C)c1=O (stereo not shown) [Compound 80, 2-{[6-({5-chloro-2-[4-({2-[2-(2,6-dioxopiperidin-3-yl)-7-fluoro-1-oxo-2,3-dihydro-1H-isoindol-5-yl]-2,7-diazaspiro[3.5]nonan-7-yl}methyl)piperidin-1-yl]pyrimidin-4-yl}amino)-2-oxo-1-(propan-2-yl)-1,2-dihydroquinolin-3-yl]oxy}-N-methylacetamide] |  |  | < 10 nM | 50 to 70%
CNC(=O)COc1cc2c(F)c(Nc3nc(N4CCC(CN5CCC6(CC5)CN(c5ccc7c(c5)CN(C5CCC(=O)NC5=O)C7=O)C6)CC4)ncc3Cl)ccc2n(C(C)C)c1=O (stereo not shown) [Compound 161, 2-{[6-({5-chloro-2-[4-({2-[2-(2,6-dioxopiperidin-3-yl)-1-oxo-2,3-dihydro-1H-isoindol-5-yl]-2,7-diazaspiro[3.5]nonan-7-yl}methyl)piperidin-1-yl]pyrimidin-4-yl}amino)-5-fluoro-2-oxo-1-(propan-2-yl)-1,2-dihydroquinolin-3-yl]oxy}-N-methylacetamide] |  |  | < 10 nM | ≥ 70%
CNC(=O)COc1cc2cc(Nc3nc(N4CCC(C(C)(C)N5CCC6(CC5)CN(c5ccc7c(c5)C(=O)N(C5CCC(=O)NC5=O)C7=O)C6)CC4)ncc3Cl)ccc2n(C(C)C)c1=O (stereo not shown) [Compound 45] |  |  | < 10 nM | 50 to 70%
CNC(=O)COc1cc2cc(Nc3nc(N4CCC(O[C@H]5C[C@H](N6CCC(c7ccc8c(c7)CN(C7CCC(=O)NC7=O)C8=O)C(F)(F)C6)C5)CC4)ncc3Cl)ccc2n(C(C)C)c1=O (stereo partly shown) [Compound 218, 2-[[6-[[5-chloro-2-[4-[3-[4-[2-(2,6-dioxo-3-piperidyl)-1-oxo-isoindolin-5-yl]-3,3-difluoro-1-piperidyl]cyclobutoxy]-1-piperidyl]pyrimidin-4-yl]amino]-1-isopropyl-2-oxo-3-quinolyl]oxy]-N-methyl-acetamide] | ≥ 70% | < 10 nM |  | 
CNC(=O)COc1cc2cc(Nc3nc(N4CCC(O[C@H]5C[C@H](N6CCN(c7cc(F)c(F)c8c7C(=O)N(C7CCC(=O)NC7=O)C8)CC6)C5)CC4)ncc3Cl)ccc2n(C(C)C)c1=O (stereo partly shown) [Compound 274, 2-({6-[(5-chloro-2-{4-[(1r,3r)-3-{4-[2-(2,6-dioxopiperidin-3-yl)-6,7-difluoro-3-oxo-2,3-dihydro-1H-isoindol-4-yl]piperazin-1-yl}cyclobutoxy]piperidin-1-yl}pyrimidin-4-yl)amino]-2-oxo-1-(propan-2-yl)-1,2-dihydroquinolin-3-yl}oxy)-N-methylacetamide] | < 50% | 10 to 50 nM |  | 
CNC(=O)COc1cc2cc(Nc3nc(N4CCC(CN5CCC6(CN(c7cccc8c7C(=O)N(C7CCC(=O)NC7=O)C8=O)C6)C(F)(F)C5)CC4)ncc3Cl)ccc2n(C(C)C)c1=O (stereo not shown) [Compound 91, 2-{[6-({5-chloro-2-[4-({2-[2-(2,6-dioxopiperidin-3-yl)-1,3-dioxo-2,3-dihydro-1H-isoindol-4-yl]-5,5-difluoro-2,7-diazaspiro[3.5]nonan-7-yl}methyl)piperidin-1-yl]pyrimidin-4-yl}amino)-2-oxo-1-(propan-2-yl)-1,2-dihydroquinolin-3-yl]oxy}-N-methylacetamide] |  |  | < 10 nM | 50 to 70%
CNC(=O)COc1cc2cc(Nc3nc(N4CCC(O[C@H]5C[C@H](N6CCC(c7ccc8c(c7)C(=O)N(C7CCC(=O)NC7=O)C8=O)C(C)(C)C6)C5)CC4)ncc3Cl)ccc2n(C(C)C)c1=O (stereo partly shown) [Compound 399, 2-({6-[(5-chloro-2-{4-[(1r,3r)-3-{4-[2-(2,6-dioxopiperidin-3-yl)-1,3-dioxo-2,3-dihydro-1H-isoindol-5-yl]-3,3-dimethylpiperidin-1-yl}cyclobutoxy]piperidin-1-yl}pyrimidin-4-yl)amino]-2-oxo-1-(propan-2-yl)-1,2-dihydroquinolin-3-yl}oxy)-N-methylacetamide] | ≥ 70% | 10 to 50 nM |  | 
CNC(=O)COc1cc2cc(Nc3nc(N4CCC(CN5CCC6(CC5)CCN6c5cccc6c5C(=O)N(C5CCC(=O)NC5=O)C6=O)CC4)ncc3Cl)ccc2n(C(C)C)c1=O (stereo not shown) [Compound 333, 2-{[6-({5-chloro-2-[4-({1-[2-(2,6-dioxopiperidin-3-yl)-1,3-dioxo-2,3-dihydro-1H-isoindol-4-yl]-1,7-diazaspiro[3.5]nonan-7-yl}methyl)piperidin-1-yl]pyrimidin-4-yl}amino)-2-oxo-1-(propan-2-yl)-1,2-dihydroquinolin-3-yl]oxy}-N-methylacetamide] | ≥ 70% | < 10 nM |  | 
CNC(=O)COc1cc2cc(Nc3nc(N4CCC(C(=O)N5CCC6(CCN(c7ccc8c(c7)CN(C7CCC(=O)NC7=O)C8=O)C6)C5)CC4)ncc3Cl)ccc2n(C(C)C)c1=O (stereo not shown) [Compound 47, 2-[(6-{[5-chloro-2-(4-{7-[2-(2,6-dioxopiperidin-3-yl)-1-oxo-2,3-dihydro-1H-isoindol-5-yl]-2,7-diazaspiro[4.4]nonane-2-carbonyl}piperidin-1-yl)pyrimidin-4-yl]amino}-2-oxo-1-(propan-2-yl)-1,2-dihydroquinolin-3-yl)oxy]-N-methylacetamide] |  |  | < 10 nM | 50 to 70%
